Legend:
Type in all cases: in vitro ADME
[1] = Human liver microsomal stability assay (Test 1); details: human liver microsomes, 0.5 uM test compound, 37° C., up to 45 minutes, pH 7.4, NADPH generating system; read-out: Test 1 T½
Protocol: (§1) (Test 1) Human liver microsomal stability assay was conducted by incubating 0.5 uM test compounds at 37° C. for up to 45 minutes in 50 mM of potassium phosphate buffer (pH 7.4) containing 0.5 mg of microsomal protein and 50 µL of NADPH generating system (7.8 mg of glucose 6-phosphate, 1.7 mg of NADPH and 6 U of glucose 6-phosphate dehydrogenase per mL in 2% w/v of sodium bicarbonate). At 0, 5, 15, 30 and 45 min., an aliquot was taken, quenched with internal standard containing stop solution. No co-factor controls at 45 minutes were also prepared. After incubation, the samples were analyzed by LC-MS/MS. Peak area ratios of analyte to internal standard were used to calculate the intrinsic clearance. The intrinsic clearance (CLint) was determined from the first order elimination constant by non-linear regression. Formation of the active drug Compound A over the time course was also monitored by LC-MS/MS analysis.

[2] = Human plasma stability assay (Test 2); details: heparinated human plasma, 0.5 uM test compound, 37° C., up to 120 minutes; read-out: Test 2 T½
Protocol: (Test 2) Human plasma stability assay was conducted by incubating 0.5 uM test compounds at 37° C. for up to 120 minutes in heparinated human plasma. At 0, 5, 15, 30, 60 and 120 […] min., an aliquot was taken, quenched with internal standard containing stop solution. After incubation, the samples were analyzed by LC-MS/MS. Peak area ratios of analyte to internal standard were used to calculate the half-life. Formation of the active drug Compound A over the time course was also monitored by LC-MS/MS analysis.

[3] = Human skin homogenate stability assay (Test 3); details: 0.5 uM test compound, 37° C., up to 45 minutes, pH 7.4, NADPH generating system, read-out: Test 3 T½
Protocol: as §1, with “3)” for “1)”, “skin homogenate” for “liver microsomal”, “conducted in a similar way as the human liver microsomal stability assay,” for “conducted”, “human skin homogenate” for “microsomal”

half-life at 0.5 uM [1] [min]	half-life at 0.5 uM [2] [min]	half-life at 0.5 uM [3] [min]	SMILES
< 15	> 60	–	CCCCC[C@H](O)CC[C@@H]1[C@H]2Cc3cccc(OCC(=O)OC)c3C[C@H]2C[C@H]1OC(=O)CCC(=O)OCC [Compound 27, Succinic acid ethyl ester 1-(3-hydroxy-octyl)-5-methoxycarbonylmethoxy-2,3,3a,4,9,9a-hexahydro-1H-cyclopenta[b]naphthalen-2-yl ester]
< 15	31 to 60	> 60	CCCCC[C@H](O)CC[C@@H]1[C@H]2Cc3cccc(OCC(=O)O[C@H](C)C(C)C)c3C[C@H]2C[C@H]1O [Compound 62]
< 15	–	–	CCCCC[C@H](O)CC[C@@H]1[C@H]2Cc3cccc(OCC(=O)OCCO)c3C[C@H]2C[C@H]1O [Compound 9, [2-Hydroxy-1-(3-hydroxy-octyl)-2,3,3a,4,9,9a-hexahydro-1H-cyclopenta[b]naphthalen-5-yloxy]-acetic acid 2-hydroxy-ethyl ester]
< 15	15 to 30	15 to 30	CCCCC[C@H](O)CC[C@@H]1[C@H]2Cc3cccc(OCC(=O)OCC(C)(C)C)c3C[C@H]2C[C@H]1O [Compound 16, [2-Hydroxy-1-(3-hydroxy-octyl)-2,3,3a,4,9,9a-hexahydro-1H-cyclopenta[b]naphthalen-5-yloxy]-acetic acid 2,2-dimethyl-propyl ester]
< 15	> 60	–	CCCCC[C@H](O)CC[C@@H]1[C@H]2Cc3cccc(OCC(=O)NCC(=O)OC)c3C[C@H]2C[C@H]1O [Compound 12, {2-[2-Hydroxy-1-(3-hydroxy-octyl)-2,3,3a,4,9,9a-hexahydro-1H-cyclopenta[b]naphthalen-5-yloxy]-acetylamino}-acetic acid methyl ester]
< 15	> 60	> 60	CCCCC[C@H](O)CC[C@@H]1[C@H]2Cc3cccc(OCC(=O)OC(C)C(C)(C)C)c3C[C@H]2C[C@H]1O (stereo partly shown) [Compound 18, [2-Hydroxy-1-(3-hydroxy-octyl)-2,3,3a,4,9,9a-hexahydro-1H-cyclopenta[b]naphthalen-5-yloxy]-acetic acid 1,2,2-trimethyl-propyl ester]
< 15	15 to 30	31 to 60	CCCCC[C@H](O)CC[C@@H]1[C@H]2Cc3cccc(OCC(=O)O[C@@H](C)CC)c3C[C@H]2C[C@H]1O [Compound 61]
31 to 60	–	–	CCCCC[C@H](O)CC[C@@H]1[C@H]2Cc3cccc(OCC(=O)NCCN)c3C[C@H]2C[C@H]1O [Compound 8, N-(2-Amino-ethyl)-2-[2-hydroxy-1-(3-hydroxy-octyl)-2,3,3a,4,9,9a-hexahydro-1H-cyclopenta[b]naphthalen-5-yloxy]-acetamide]
< 15	> 60	–	CCCCC[C@H](O)CC[C@@H]1[C@H]2Cc3cccc(OCC(=O)OC)c3C[C@H]2C[C@H]1OC(=O)C1CC1 [Compound 24, Cyclopropanecarboxylic acid 1-(3-hydroxy-octyl)-5-methoxycarbonylmethoxy-2,3,3a,4,9,9a-hexahydro-1H-cyclopenta[b]naphthalen-2-yl ester]
< 15	> 60	> 60	CCCCCCCCOC(=O)COc1cccc2c1C[C@H]1C[C@@H](O)[C@H](CC[C@@H](O)CCCCC)[C@H]1C2 [Compound 64]
< 15	< 15	–	CCCCC[C@H](O)CC[C@@H]1[C@H]2Cc3cccc(OCC(=O)OCCCF)c3C[C@H]2C[C@H]1O [Compound 4, [2-Hydroxy-1-(3-hydroxy-octyl)-2,3,3a,4,9,9a-hexahydro-1H-cyclopenta[b]naphthalen-5-yloxy]-acetic acid 3-fluoro-propyl ester]
< 15	31 to 60	31 to 60	CCCCC[C@H](O)CC[C@@H]1[C@H]2Cc3cccc(OCC(=O)O[C@H](C)CC)c3C[C@H]2C[C@H]1O [Compound 60]
< 15	< 15	–	CCCCC[C@H](O)CC[C@@H]1[C@H]2Cc3cccc(OCC(=O)OCC4CC4)c3C[C@H]2C[C@H]1O [Compound 1, [2-Hydroxy-1-(3-hydroxy-octyl)-2,3,3a,4,9,9a-hexahydro-1H-cyclopenta[b]naphthalen-5-yloxy]-acetic acid cyclopropylmethyl ester]
< 15	15 to 30	–	CCCCC[C@H](O)CC[C@@H]1[C@H]2Cc3cccc(OCC(=O)OC(C)(C)C)c3C[C@H]2C[C@H]1O [Compound 28, [2-Hydroxy-1-(3-hydroxy-octyl)-2,3,3a,4,9,9a-hexahydro-1H-cyclopenta[b]naphthalen-5-yloxy]-acetic acid tert-butyl ester]
< 15	< 15	–	CCCCC[C@H](O)CC[C@@H]1[C@H]2Cc3cccc(OCC(=O)OC4CCOC4)c3C[C@H]2C[C@H]1O (stereo partly shown) [Compound 5, [2-Hydroxy-1-(3-hydroxy-octyl)-2,3,3a,4,9,9a-hexahydro-1H-cyclopenta[b]naphthalen-5-yloxy]-acetic acid tetrahydro-furan-3-yl ester]
< 15	> 60	–	CCCCC[C@H](O)CC[C@@H]1[C@H]2Cc3cccc(OCC(=O)NCCCO)c3C[C@H]2C[C@H]1O [Compound 11, 2-[2-Hydroxy-1-(3-hydroxy-octyl)-2,3,3a,4,9,9a-hexahydro-1H-cyclopenta[b]naphthalen-5-yloxy]-N-(3-hydroxy-propyl)-acetamide]
< 15	> 60	–	CCCCC[C@H](O)CC[C@@H]1[C@H]2Cc3cccc(OCC(=O)OC)c3C[C@H]2C[C@H]1OC(=O)CC(C)C [Compound 23, 3-Methyl-butyric acid 1-(3-hydroxy-octyl)-5-methoxycarbonylmethoxy-2,3,3a,4,9,9a-hexahydro-1H-cyclopenta[b]naphthalen-2-yl ester]
< 15	–	–	CCCCC[C@H](O)CC[C@@H]1[C@H]2Cc3cccc(OCC(=O)OCCOC)c3C[C@H]2C[C@H]1O [Compound 10, [2-Hydroxy-1-(3-hydroxy-octyl)-2,3,3a,4,9,9a-hexahydro-1H-cyclopenta[b]naphthalen-5-yloxy]-acetic acid 2-methoxy-ethyl ester]
< 15	> 60	–	CCCCC[C@H](O)CC[C@@H]1[C@H]2Cc3cccc(OCC(=O)NCC(F)(F)C(F)(F)F)c3C[C@H]2C[C@H]1O [Compound 21, 2-[2-Hydroxy-1-(3-hydroxy-octyl)-2,3,3a,4,9,9a-hexahydro-1 H-cyclopenta[b]naphthalen-5-yloxy]-N-(2,2,3,3,3-pentafluoro-propyl)-acetamide]

SMILES	half-life at 0.5 uM [1] [min]	half-life at 0.5 uM [2] [min]	half-life at 0.5 uM [3] [min]
CCCCC[C@H](O)CC[C@@H]1[C@H]2Cc3cccc(OCC(=O)O[C@H](C)C(=O)OC)c3C[C@H]2C[C@H]1O [Compound 6, 2-{2-[2-Hydroxy-1-(3-hydroxy-octyl)-2,3,3a,4,9,9a-hexahydro-1H-cyclopenta[b]naphthalen-5-yloxy]-acetoxy}-propionic acid methyl ester]	< 15	< 15	–
